# Results as given in PubChem BioAssay AID1259411 (Chemical Carcinogenesis Research Information System (CCRIS), 2018).
# The source made the active and inactive calls. No rule for the calls is given here.
# System: rodent carcinogenicity bioassays, tumor incidence
# Assay: CCRIS carcinogenicity studies
# Summary of the method: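 Archive of carcinogenicity, mutagenicity, tumor promotion and tumor inhibition results drawn from journals, NCI reports and other sources, expert-reviewed; covers 1985-2011 and is no longer updated.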
structure (smiles),measurement,setting,value
C=C(Cl)Cl,carcinogen call,"Species: FISH, Strain/Sex: SHASTA RAINBOW TROUT/MALE, FEMALE, Route: ORAL, Dose: 0, 2000 PPM IN DIET FOR 18 MO (STUDY DURATION: 18 MO)",inactive; negative
same,carcinogen call,"Species: MOUSE, Route: INHALATION, Tumor Site: Type of Lesion: KIDNEY, LUNG, LIVER, Tumor Site: Type of Lesion: KIDNEY, LUNG, LIVER",active; positive
same,carcinogen call,"Species: RAT, Strain/Sex: SPRAGUE-DAWLEY/FEMALE, Route: GAVAGE, Dose: 0, 0.5, 5, 10, 20 MG/KG BW IN OLIVE OIL 1/D 4-5 D/WK FOR 52-59 WK (STUDY DURATION: LIFETIME), Dose: 0, 0.5, 5, 10, 20 MG/KG BW IN OLIVE OIL 1/D 4-5 D/WK FOR 52-59 WK (STUDY DURATION: LIFETIME), Tumor Site: Type of Lesion: [BRAIN WAS ONLY SITE EVALUATED]",inactive; negative
same,carcinogen call,"Species: RAT, Strain/Sex: SPRAGUE-DAWLEY/FEMALE, Route: INHALATION, Dose: 0, 10, 25, 50, 100, 150 PPM IN AIR 4 HR/D 4-5 D/WK FOR 52 WK (STUDY DURATION: LIFETIME), Dose: 0, 10, 25, 50, 100, 150 PPM IN AIR 4 HR/D 4-5 D/WK FOR 52 WK (STUDY DURATION: LIFETIME), Tumor Site: Type of Lesion: [BRAIN WAS ONLY SITE EVALUATED]",inactive; negative
same,carcinogen call,"Species: RAT, Strain/Sex: SPRAGUE-DAWLEY/FEMALE, Route: INHALATION, Dose: 0, 100 PPM 4 HR/D 5 D/WK FOR 7 WK THEN 7 HR/D 5 D/WK FOR 8 WK ADMINISTERED TO RAT EMBRYOS BEGINNING ON THE 12TH DAY OF G",inactive; negative
same,carcinogen call,"Species: RAT, Strain/Sex: SPRAGUE-DAWLEY/FEMALE, Route: INHALATION, Dose: 0, 100 PPM 4 HR/D 5 D/WK FOR 7 WK THEN 7 HR/D 5 D/WK FOR 97 WK ADMINISTERED TO BREEDER RATS (STUDY DURATION: 104 WK)",inactive; negative
same,carcinogen call,"Species: RAT, Strain/Sex: SPRAGUE-DAWLEY/FEMALE, Route: INHALATION, Dose: 0, 100 PPM 4 HR/D 5 D/WK FOR 7 WK THEN 7 HR/D 5 D/WK FOR 97 WK ADMINISTERED TO RAT EMBRYOS BEGINNING ON 12TH DAY OF GEST, Tumor Site: Type of Lesion: HEMATOPOIETIC SYSTEM: LEUKEMIA",active; positive
same,carcinogen call,"Species: RAT, Strain/Sex: SPRAGUE-DAWLEY/FEMALE, Route: ORAL, Dose: 0, 50, 100, 200 PPM IN DRINKING WATER FOR 2 YR (STUDY DURATION: 2 YR), Dose: 0, 50, 100, 200 PPM IN DRINKING WATER FOR 2 YR (STUDY DURATION: 2 YR)",inactive; negative
same,carcinogen call,"Species: RAT, Strain/Sex: SPRAGUE-DAWLEY/MALE, Route: GAVAGE, Dose: 0, 0.5, 5, 10, 20 MG/KG BW IN OLIVE OIL 1/D 4-5 D/WK FOR 52-59 WK (STUDY DURATION: LIFETIME), Dose: 0, 0.5, 5, 10, 20 MG/KG BW IN OLIVE OIL 1/D 4-5 D/WK FOR 52-59 WK (STUDY DURATION: LIFETIME), Tumor Site: Type of Lesion: [BRAIN WAS ONLY SITE EVALUATED]",inactive; negative
same,carcinogen call,"Species: RAT, Strain/Sex: SPRAGUE-DAWLEY/MALE, Route: INHALATION, Dose: 0, 10, 25, 50, 100, 150 PPM IN AIR 4 HR/D 4-5 D/WK FOR 52 WK (STUDY DURATION: LIFETIME), Dose: 0, 10, 25, 50, 100, 150 PPM IN AIR 4 HR/D 4-5 D/WK FOR 52 WK (STUDY DURATION: LIFETIME), Tumor Site: Type of Lesion: [BRAIN WAS ONLY SITE EVALUATED]",inactive; negative
same,carcinogen call,"Species: RAT, Strain/Sex: SPRAGUE-DAWLEY/MALE, Route: INHALATION, Dose: 0, 100 PPM 4 HR/D 5 D/WK FOR 7 WK THEN 7 HR/D 5 D/WK FOR 8 WK ADMINISTERED TO RAT EMBRYOS BEGINNING ON THE 12TH DAY OF G",inactive; negative
same,carcinogen call,"Species: RAT, Strain/Sex: SPRAGUE-DAWLEY/MALE, Route: INHALATION, Dose: 0, 100 PPM 4 HR/D 5 D/WK FOR 7 WK THEN 7 HR/D 5 D/WK FOR 97 WK ADMINISTERED TO RAT EMBRYOS BEGINNING ON 12TH DAY OF GEST",inactive; negative
same,carcinogen call,"Species: RAT, Strain/Sex: SPRAGUE-DAWLEY/MALE, Route: ORAL, Dose: 0, 50, 100, 200 PPM IN DRINKING WATER FOR 2 YR (STUDY DURATION: 2 YR), Dose: 0, 50, 100, 200 PPM IN DRINKING WATER FOR 2 YR (STUDY DURATION: 2 YR)",inactive; negative
same,carcinogen call,"Species: RAT, Strain/Sex: SPRAGUE-DAWLEY, Route: INHALATION, Tumor Site: Type of Lesion: MAMMARY GLAND: FIBROADENOMA, CARCINOMA",active; positive
CC(=O)Nc1ccc(/C=C/c2ccccc2)cc1,carcinogen call,"Species: RAT, Strain/Sex: HOLTZMAN/MALE, Route: ORAL, Dose: 0, 0.0046% IN DIET FOR WK 0-13 (STUDY DURATION: 40 WK), Tumor Site: Type of Lesion: EAR DUCT GLAND: CARCINOMA",active; positive
C=O,carcinogen call,"Species: Hamster, Strain/Sex: Syrian golden/Male (132/Control group; 88/Experimental group), Route: Inhalation, Dose: 10 ppm 5 hr/day, 5 d/wk for life, study duration was lifetime of the animal",inactive; negative
same,carcinogen call,"Species: Mouse, Strain/Sex: B6C3F1/Female (120/Group with sacrifices at 6, 12 and 24 mo), Route: Inhalation, Dose: 0, 2, 6, 15 ppm 6 hr/d, 5 d/wk for 24 mo, study duration 24 mo, Dose: 0, 2, 6, 15 ppm 6 hr/d, 5 d/wk for 24 mo, study duration 24 mo",inactive; negative. dose-related non-neoplastic nasal lesions were observed.
same,carcinogen call,"Species: Mouse, Strain/Sex: B6C3F1/Male (120/Group with sacrifices at 6, 12 and 24 mo), Route: Inhalation, Dose: 0, 2, 6, 15 ppm 6 hr/d, 5 d/wk for 24 mo, study duration 24 mo, Dose: 0, 2, 6, 15 ppm 6 hr/d, 5 d/wk for 24 mo, study duration 24 mo, Tumor Site: Type of Lesion: Nasal passages",active; positive. dose-related non-neoplastic nasal lesions also observed.
same,carcinogen call,"Species: RAT, Strain/Sex: F344/FEMALE, Route: INHALATION, Dose: 0, 2, 6, 15 PPM, Dose: 0, 2, 6, 15 PPM, Tumor Site: Type of Lesion: NASAL TURBINATES: SQUAMOUS CELL CARCINOMA",active; positive
same,carcinogen call,"Species: RAT, Strain/Sex: F344/MALE, Route: INHALATION, Dose: 0, 0.3, 2, 15 PPM 6 HR/D 5 D/WK FOR 28 MO (STUDY DURATION: 28 MO), Dose: 0, 0.3, 2, 15 PPM 6 HR/D 5 D/WK FOR 28 MO (STUDY DURATION: 28 MO), Tumor Site: Type of Lesion: NASAL CAVITY: SQUAMOUS CELL CARCINOMA, SQUAMOUS CELL PAPILLOMA",active; positive
same,carcinogen call,"Species: RAT, Strain/Sex: F344/MALE, Route: INHALATION, Dose: 0, 2, 6, 15 PPM, Dose: 0, 2, 6, 15 PPM, Tumor Site: Type of Lesion: NASAL TURBINATES: SQUAMOUS CELL CARCINOMA",active; positive
same,carcinogen call,"Species: RAT, Strain/Sex: SPRAGUE-DAWLEY/FEMALE, Route: ORAL, Dose: 0, 10, 50, 100, 500, 1000, 1500 PPM IN DRINKING WATER FOR 104 WK (STUDY DURATION: LIFETIME), Dose: 0, 10, 50, 100, 500, 1000, 1500 PPM IN DRINKING WATER FOR 104 WK (STUDY DURATION: LIFETIME), Tumor Site: Type of Lesion: LYMPHATIC SYSTEM: LEUKEMIA, GASTROINTESTINAL SYSTEM: TUMOR",active; positive
same,carcinogen call,"Species: RAT, Strain/Sex: SPRAGUE-DAWLEY/MALE, Route: INHALATION, Dose: 14.2 PPM 6 HR/DAY, 5 DAY/WK, Tumor Site: Type of Lesion: NASAL CAVITY: SQUAMOUS CELL CARCINOMA",active; positive
same,carcinogen call,"Species: RAT, Strain/Sex: SPRAGUE-DAWLEY/MALE, Route: ORAL, Dose: 0, 10, 50, 100, 500, 1000, 1500 PPM IN DRINKING WATER FOR 104 WK (STUDY DURATION: LIFETIME), Dose: 0, 10, 50, 100, 500, 1000, 1500 PPM IN DRINKING WATER FOR 104 WK (STUDY DURATION: LIFETIME), Tumor Site: Type of Lesion: LYMPHATIC SYSTEM: LEUKEMIA, GASTROINTESTINAL SYSTEM: TUMOR",active; positive
same,carcinogen call,"Species: RAT, Strain/Sex: WISTAR/FEMALE, Route: ORAL, Dose: 0, 1.8, 21 MG/KG IN DRINKING WATER FOR UP TO 24 MO (STUDY DURATION: 105 WK), Dose: 0, 1.8, 21 MG/KG IN DRINKING WATER FOR UP TO 24 MO (STUDY DURATION: 105 WK)",inactive; negative
same,carcinogen call,"Species: RAT, Strain/Sex: WISTAR/MALE, Route: INHALATION, Dose: 0, 0.1, 1.0, 10 PPM 6HR/D, 5D/WK FOR 3 MO (STUDY DURATION: 29 MO), Dose: 0, 0.1, 1.0, 10 PPM 6HR/D, 5D/WK FOR 3 MO (STUDY DURATION: 29 MO)",inactive; negative
same,carcinogen call,"Species: RAT, Strain/Sex: WISTAR/MALE, Route: INHALATION, Dose: 0, 0.1, 1.0, 10 PPM 6HR/D, 5D/WK FOR 28 MO (STUDY DURATION: 29 MO), Dose: 0, 0.1, 1.0, 10 PPM 6HR/D, 5D/WK FOR 28 MO (STUDY DURATION: 29 MO)",inactive; negative
same,carcinogen call,"Species: RAT, Strain/Sex: WISTAR/MALE, Route: ORAL, Dose: 0, 1.2, 15 MG/KG IN DRINKING WATER FOR UP TO 24 MO (STUDY DURATION: 105 WK), Dose: 0, 1.2, 15 MG/KG IN DRINKING WATER FOR UP TO 24 MO (STUDY DURATION: 105 WK)",inactive; negative
